Columns and labels:
Experiment in all cases: relative viability (nuclei count vs DMSO), 5 days (fraction); higher = more cells survive
201T = system: 201T
Outline: (§1)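 Relative viability divides the nuclei count in treated wells by that in vehicle wells. Lung cancer cell lines were seeded in 1536-well plates, dosed by pin tool the next day, and fixed and stained after 5 days in one step with final 0.05% Triton X-100, 1% formaldehyde and 1 ug/ml Hoechst. Dosing was a single drug or a fixed anchor-drug dose plus five library-drug doses (not always all listed) in √10 steps, and values are medians of duplicate plates imaged at 4×.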

BEN = system: BEN
Outline: as §1

HCC-78 = system: HCC-78
Outline: as §1

HOP-62 = system: HOP-62
Outline: as §1

LCLC-97TM1 = system: LCLC-97TM1
Outline: as §1

LOU-NH91 = system: LOU-NH91
Outline: as §1

NCI-H1355 = system: NCI-H1355
Outline: as §1

NCI-H1395 = system: NCI-H1395
Outline: as §1

NCI-H1651 = system: NCI-H1651
Outline: as §1

NCI-H1793 = system: NCI-H1793
Outline: as §1

NCI-H1915 = system: NCI-H1915
Outline: as §1

NCI-H1944 = system: NCI-H1944
Outline: as §1

NCI-H2126 = system: NCI-H2126
Outline: as §1

NCI-H2347 = system: NCI-H2347
Outline: as §1

NCI-H3122 = system: NCI-H3122
Outline: as §1

NCI-H322M = system: NCI-H322M
Outline: as §1

NCI-H441 = system: NCI-H441
Outline: as §1

NCI-H650 = system: NCI-H650
Outline: as §1

NCI-H838 = system: NCI-H838
Outline: as §1

SK-LU-1 = system: SK-LU-1
Outline: as §1

SW 1573 = system: SW 1573
Outline: as §1

`Cc1csc(=NC2CCCCC2)n1/N=C/c1ccc(O)c(O)c1O` [MIM1] + Nc1ncn([C@H]2C[C@H](O)[C@@H](CO)O2)c(=O)n1 [Decitabine] (partner 2 µM) gave a relative viability (201T; first compound 0.2 µM) of 0.849, a relative viability (201T; first compound 0.6325 µM) of 0.887 and a relative viability (201T; first compound 2 µM) of 0.812. For the same molecule, the relative viability (201T; first compound 6.325 µM) was 0.831, the relative viability (201T; first compound 20 µM) was 0.533 and the relative viability (BEN; first compound 0.2 µM) was 0.811. It also gave a relative viability (BEN; first compound 0.6325 µM) of 0.547, a relative viability (BEN; first compound 2 µM) of 0.797 and a relative viability (BEN; first compound 6.325 µM) of 0.739. The relative viability (BEN; first compound 20 µM) was 0.317, the relative viability (HCC-78; first compound 0.2 µM) was 0.784 and the relative viability (HCC-78; first compound 2 µM) was 0.728. The relative viability (HCC-78; first compound 6.325 µM) was 0.502, the relative viability (HCC-78; first compound 20 µM) was 0.426 and the relative viability (HOP-62; first compound 0.2 µM) was 0.206. It also gave a relative viability (HOP-62; first compound 0.6325 µM) of 0.222, a relative viability (HOP-62; first compound 2 µM) of 0.206 and a relative viability (HOP-62; first compound 6.325 µM) of 0.222. For the same molecule, the relative viability (HOP-62; first compound 20 µM) was 0.147, the relative viability (LCLC-97TM1; first compound 0.2 µM) was 0.245 and the relative viability (LCLC-97TM1; first compound 0.6325 µM) was 0.238. For the same molecule, the relative viability (LCLC-97TM1; first compound 2 µM) was 0.234, the relative viability (LCLC-97TM1; first compound 6.325 µM) was 0.214 and the relative viability (LCLC-97TM1; first compound 20 µM) was 0.0699. It also gave a relative viability (LOU-NH91; first compound 0.2 µM) of 0.787, a relative viability (LOU-NH91; first compound 0.6325 µM) of 0.788 and a relative viability (LOU-NH91; first compound 2 µM) of 0.644. For the same molecule, the relative viability (LOU-NH91; first compound 6.325 µM) was 0.742, the relative viability (LOU-NH91; first compound 20 µM) was 0.458 and the relative viability (NCI-H1355; first compound 0.2 µM) was 0.361. The relative viability (NCI-H1355; first compound 0.6325 µM) was 0.343, the relative viability (NCI-H1355; first compound 2 µM) was 0.386 and the relative viability (NCI-H1355; first compound 6.325 µM) was 0.339. The relative viability (NCI-H1355; first compound 20 µM) was 0.332, the relative viability (NCI-H1395; first compound 0.2 µM) was 0.708 and the relative viability (NCI-H1395; first compound 0.6325 µM) was 0.793. It also gave a relative viability (NCI-H1395; first compound 2 µM) of 0.646, a relative viability (NCI-H1395; first compound 6.325 µM) of 0.688 and a relative viability (NCI-H1395; first compound 20 µM) of 0.427. It also gave a relative viability (NCI-H1651; first compound 0.2 µM) of 0.608, a relative viability (NCI-H1651; first compound 0.6325 µM) of 0.524 and a relative viability (NCI-H1651; first compound 2 µM) of 0.56. It also gave a relative viability (NCI-H1651; first compound 6.325 µM) of 0.509, a relative viability (NCI-H1651; first compound 20 µM) of 0.306 and a relative viability (NCI-H1793; first compound 0.2 µM) of 0.507. It also gave a relative viability (NCI-H1793; first compound 2 µM) of 0.518, a relative viability (NCI-H1793; first compound 6.325 µM) of 0.479 and a relative viability (NCI-H1793; first compound 20 µM) of 0.495. The relative viability (NCI-H1915; first compound 0.2 µM) was 0.263, the relative viability (NCI-H1915; first compound 0.6325 µM) was 0.273 and the relative viability (NCI-H1915; first compound 2 µM) was 0.256. It also gave a relative viability (NCI-H1915; first compound 6.325 µM) of 0.232, a relative viability (NCI-H1915; first compound 20 µM) of 0.245 and a relative viability (NCI-H1944; first compound 0.2 µM) of 0.399. The relative viability (NCI-H1944; first compound 0.6325 µM) was 0.467, the relative viability (NCI-H1944; first compound 2 µM) was 0.403 and the relative viability (NCI-H1944; first compound 6.325 µM) was 0.412. The relative viability (NCI-H1944; first compound 20 µM) was 0.355, the relative viability (NCI-H2126; first compound 0.2 µM) was 0.659 and the relative viability (NCI-H2126; first compound 0.6325 µM) was 0.628. For the same molecule, the relative viability (NCI-H2126; first compound 2 µM) was 0.545, the relative viability (NCI-H2126; first compound 6.325 µM) was 0.584 and the relative viability (NCI-H2126; first compound 20 µM) was 0.488. For the same molecule, the relative viability (NCI-H2347; first compound 0.2 µM) was 0.592, the relative viability (NCI-H2347; first compound 0.6325 µM) was 0.592 and the relative viability (NCI-H2347; first compound 2 µM) was 0.64. The relative viability (NCI-H2347; first compound 6.325 µM) was 0.574, the relative viability (NCI-H2347; first compound 20 µM) was 0.527 and the relative viability (NCI-H3122; first compound 0.2 µM) was 0.449. For the same molecule, the relative viability (NCI-H3122; first compound 0.6325 µM) was 0.507, the relative viability (NCI-H3122; first compound 2 µM) was 0.487 and the relative viability (NCI-H3122; first compound 6.325 µM) was 0.407. For the same molecule, the relative viability (NCI-H3122; first compound 20 µM) was 0.411, the relative viability (NCI-H322M; first compound 0.2 µM) was 0.622 and the relative viability (NCI-H322M; first compound 0.6325 µM) was 0.74. The relative viability (NCI-H322M; first compound 2 µM) was 0.736, the relative viability (NCI-H322M; first compound 6.325 µM) was 0.642 and the relative viability (NCI-H322M; first compound 20 µM) was 0.653. For the same molecule, the relative viability (NCI-H441; first compound 0.2 µM) was 0.132, the relative viability (NCI-H441; first compound 0.6325 µM) was 0.252 and the relative viability (NCI-H441; first compound 2 µM) was 0.241. It also gave a relative viability (NCI-H441; first compound 6.325 µM) of 0.173, a relative viability (NCI-H441; first compound 20 µM) of 0.178 and a relative viability (NCI-H650; first compound 0.2 µM) of 0.294. For the same molecule, the relative viability (NCI-H650; first compound 0.6325 µM) was 0.342, the relative viability (NCI-H650; first compound 2 µM) was 0.345 and the relative viability (NCI-H650; first compound 6.325 µM) was 0.323. For the same molecule, the relative viability (NCI-H650; first compound 20 µM) was 0.206, the relative viability (NCI-H838; first compound 0.2 µM) was 0.468 and the relative viability (NCI-H838; first compound 0.6325 µM) was 0.462. The relative viability (NCI-H838; first compound 2 µM) was 0.513, the relative viability (NCI-H838; first compound 6.325 µM) was 0.394 and the relative viability (NCI-H838; first compound 20 µM) was 0.221. For the same molecule, the relative viability (SK-LU-1; first compound 0.2 µM) was 0.686, the relative viability (SK-LU-1; first compound 0.6325 µM) was 0.727 and the relative viability (SK-LU-1; first compound 2 µM) was 0.708. For the same molecule, the relative viability (SK-LU-1; first compound 6.325 µM) was 0.65, the relative viability (SK-LU-1; first compound 20 µM) was 0.351 and the relative viability (SW 1573; first compound 0.2 µM) was 0.592. It also gave a relative viability (SW 1573; first compound 0.6325 µM) of 0.516, a relative viability (SW 1573; first compound 2 µM) of 0.429 and a relative viability (SW 1573; first compound 6.325 µM) of 0.306. It also gave a relative viability (SW 1573; first compound 20 µM) of 0.166.
